Experimental data reported in PubChem BioAssay (NCI).
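Where inhibition never reached the appropriate level, the endpoint shown equals the highest concentration tested. Otherwise, values were interpolated linearly from a five-concentration, 48-hour dose response in 96-well plates. TGI denotes the concentration required for complete inhibition of growth.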

Tests used:
Assay in all cases: growth of human tumour cells (NCI), 48 h
A549 NSCLC = tested on: A549 NSCLC
HCT-116 colon = tested on: HCT-116 colon
HCT-15 colon = tested on: HCT-15 colon
HS 578T breast = tested on: HS 578T breast
NCI/ADR-RES ovarian = tested on: NCI/ADR-RES ovarian
OVCAR-4 ovarian = tested on: OVCAR-4 ovarian
PC-3 prostate = tested on: PC-3 prostate
SK-MEL-2 melanoma = tested on: SK-MEL-2 melanoma
UACC-62 melanoma = tested on: UACC-62 melanoma
HT29 colon = tested on: HT29 colon

Structure (SMILES) | TGI (A549 NSCLC) [µM] | TGI (HCT-116 colon) [µM] | TGI (HCT-15 colon) [µM] | TGI (HS 578T breast) [µM] | TGI (NCI/ADR-RES ovarian) [µM] | TGI (OVCAR-4 ovarian) [µM] | TGI (PC-3 prostate) [µM] | TGI (SK-MEL-2 melanoma) [µM] | TGI (UACC-62 melanoma) [µM] | TGI (HT29 colon) [µM]
CC1(C)CN=C(c2ccc3ccccc3c2O)N1 | > 100 | > 100 | > 100 | > 100 | > 100 | > 100 | > 100 | > 100 | > 100 | 
COc1cc(/C=C2\N=C(c3ccccc3)N(c3ccc(C(=O)c4ccccc4)cc3N3C(=O)/C(=C/c4cc(OC)c(OC)c(OC)c4)N=C3c3ccccc3)C2=O)cc(OC)c1OC | 71.6 | 52.2 | 39.2 | 74.8 | 34.1 | > 100 | 46 | 25.1 | 24.7 | 92
O/N=C1/CCCCC1NO (centres undefined) | > 100 | > 100 | > 100 | > 100 | > 100 | > 100 | > 100 | > 100 | > 100 | > 100
N#Cc1nc(Cc2cccs2)oc1N | > 100 | > 100 | > 100 | > 100 |  |  | > 100 | > 100 | > 100 | > 100
O=c1c2cc(Cl)ccc2n2nnc3ccc(NCCNCCO)c1c32 | 2.58 | 2.33 | 2.59 |  |  | 2.52 | 2.75 | 5.01 | 5.41 | 2.74
CCSc1nn(-c2c3ccccc3nc3ccccc23)c(=S)s1 | > 100 | > 100 | > 100 | > 100 | > 100 | > 100 | > 100 | > 100 | > 100 | > 100
CC(C)(CN1CCCCC1)C(=O)CC(SCCS(=O)(=O)O)c1ccc(Cl)c(Cl)c1 (centres undefined) | 21 | 10.6 | 5.35 | 7 | 22.9 | 9.38 | 17 | 57.3 | 10.1 | 10.9
O=C(NC(Cc1c[nH]c2ccccc12)C(=O)O)/C(=C/c1ccccc1)NC(=O)c1ccccc1 (centres undefined) | > 100 | > 100 | > 100 | > 100 | > 100 | > 100 | > 100 | > 100 | > 100 | > 100
Cc1ccc2c(=O)c3c(O)c4c(cc3n(C)c2c1)OC(C)(C)C=C4 | > 10 | > 10 | > 10 | > 10 | > 10 | > 10 | > 10 | > 10 | > 10 | > 10
Nc1ncc(Cc2nn3c(COc4ccc(Cl)cc4)nnc3s2)s1 | > 100 | > 100 | 19.1 | > 100 | > 100 | > 100 | > 100 | > 100 | > 100 | > 100
C=C1C[C@]23CC[C@@H]4C(CO)(CO)CC(=O)C[C@]4(C)[C@@H]2C(O)C[C@H]1C3 (some centres undefined) | > 100 | > 100 | > 100 | > 100 | > 100 | > 100 | > 100 | > 100 | > 100 | > 100
CC(=O)Nc1oc(C)nc1C#N | > 100 | > 100 | > 100 | > 100 |  | > 100 | > 100 | > 100 | > 100 | > 100
Clc1cccc(Cl)c1C1ON=C(c2ccccc2)N1C12CC3CC(CC(C3)C1)C2 (centres undefined) | > 100 | 59.9 | > 100 | 87.2 | 84.4 | > 100 | 29.9 | 71 | > 100 | > 100
NCCCN1CCN(CCCNc2ccc3ncn4c5ccccc5c(=O)c2c34)CC1 | > 25 | 18.3 | > 25 | 22.1 | > 25 | 2.89 | 10.8 | 13.3 | 6.18 | 6.7
Cn1cnc([N+](=O)[O-])c1Sc1nncc2[nH]cnc12 | > 100 | > 100 | > 100 |  | > 100 | > 100 | > 100 | > 100 | > 100 | > 100
C=C1C(=O)OC2C1CC1OC2C(C)CCC/C(C)=C\CCC1(C)O (centres undefined) | > 78.3 | 41 | 63.6 |  | 55.2 | 56.6 |  | 32.7 | 26.4 | > 91.1
COc1cccc(C2c3cc4c(cc3OC(N3CCOCC3)C2C)OCO4)c1 (centres undefined) | 51.9 | 34.9 | > 100 | 60.1 | > 100 | 61 | 44.4 | 83.6 |  | 25
CC1Oc2c(c(O)cc3oc(=O)cc(-c4ccccc4)c23)C(=O)C1C (centres undefined) |  |  | > 100 |  |  |  |  | > 100 | > 100 | 
Cc1cccc(/C=N/NC(=S)NC(C)(C)C)n1 | > 100 | > 100 | > 100 | > 100 | > 100 | > 100 | > 100 | > 100 | > 100 | > 100
NC(=S)NS(=O)(=O)c1ccc(Cl)cc1Cl | > 100 | > 100 | > 100 | > 100 | > 100 | > 100 | > 100 | > 100 | > 100 | > 100
Cc1ccc(N=Nc2cc(=O)[nH]c(=O)[nH]2)cc1C | 34.7 | 22.5 | 11.2 |  | > 100 | 31.8 | 11.7 |  |  | 4.51
CN(CCc1ccccn1)C(=S)N/N=C/c1ccccn1 | 3.75 |  | 35.6 | > 87.2 | 18 | 21.4 | > 58.1 | 0.27 | 15.7 | 43.1
